Experimental findings from paper PMC6478789, “A chemical toolbox for the study of bromodomains and epigenetic signaling” (Nature Communications, 2019) are described below.

The target in assay [1] is T1, ATAD2B (Homo sapiens, UniProt Q9ULI0).
T1 sequence (Q9ULI0 951-1066 limits assumed): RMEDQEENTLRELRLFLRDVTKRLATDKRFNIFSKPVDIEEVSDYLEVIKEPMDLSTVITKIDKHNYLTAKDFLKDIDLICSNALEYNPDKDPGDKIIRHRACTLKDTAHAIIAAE
As to the kind of experiment: BROMOscan ligand-binding assay.
Source text: (§1) BROMOscan is a binding assay based on the well-known KINOMEscan technology. This assay measures the binding of a DNA-tagged bromodomain to an immobilized BRD ligand. If an inhibitor is present, it will compete with the bromodomain binding to the immobilized ligand, resulting in reduction of a quantitative PCR (qPCR) signal in a dose-dependent manner.

The target in assay [2] is BRD2(1) (Homo sapiens, UniProt P25440). As to the kind of experiment: BROMOscan ligand-binding assay.
Chain of BRD2(1) (P25440 74-180 limits assumed): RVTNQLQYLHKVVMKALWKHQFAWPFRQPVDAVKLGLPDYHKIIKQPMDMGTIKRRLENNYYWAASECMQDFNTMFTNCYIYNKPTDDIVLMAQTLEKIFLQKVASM
Source text: as §1
Assay [3] concerns the target BRD2(1,2) (Homo sapiens, UniProt P25440). As to the kind of experiment: BROMOscan ligand-binding assay.
Source text: as §1
The target of assay [4] is BRD3(1) (Homo sapiens, UniProt Q15059). Nature of the assay: BROMOscan ligand-binding assay.
Chain of BRD3(1) (Q15059 34-140 limits assumed): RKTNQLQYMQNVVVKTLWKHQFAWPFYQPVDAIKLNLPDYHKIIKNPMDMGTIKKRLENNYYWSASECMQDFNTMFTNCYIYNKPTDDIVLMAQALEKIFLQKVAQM
Source text: as §1
For assay [5], the target named is BRD4(fl) (Homo sapiens, UniProt O60885). Nature of the assay: BROMOscan ligand-binding assay.
Source text: as §1
In assay [6] the target is T2, EP300 (Homo sapiens, UniProt Q09472).
T2 sequence (Q09472 1049-1156 limits assumed): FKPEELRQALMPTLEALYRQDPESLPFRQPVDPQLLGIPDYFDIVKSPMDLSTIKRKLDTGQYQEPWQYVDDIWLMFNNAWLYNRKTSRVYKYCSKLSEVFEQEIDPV
Nature of the assay: BROMOscan ligand-binding assay.
Source text: as §1

In assay [7] the target is T3, GCN5L2 (Homo sapiens, UniProt Q92830).
T3 sequence (Q92830 728-832 limits assumed): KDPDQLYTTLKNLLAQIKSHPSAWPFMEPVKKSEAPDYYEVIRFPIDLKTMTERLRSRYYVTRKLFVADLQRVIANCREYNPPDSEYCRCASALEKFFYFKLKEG
Nature of the assay: BROMOscan ligand-binding assay.
Source text: as §1

Assay [8] addresses PBRM1(2) (Homo sapiens, UniProt Q86U86). Nature of the assay: BROMOscan ligand-binding assay.
Source text: as §1
Assay [9] concerns the target SMARCA2 (Homo sapiens, UniProt P51531). Nature of the assay: BROMOscan ligand-binding assay.
Source text: as §1
Assay [10] addresses SMARCA4 (Homo sapiens, UniProt P51532). As to the kind of experiment: BROMOscan ligand-binding assay. As to conditions: SMARCA4.
Source text: as §1
For assay [11], the target named is T4, TRIM24 (Homo sapiens, UniProt O15164).
T4 sequence (O15164 899-1004 limits assumed): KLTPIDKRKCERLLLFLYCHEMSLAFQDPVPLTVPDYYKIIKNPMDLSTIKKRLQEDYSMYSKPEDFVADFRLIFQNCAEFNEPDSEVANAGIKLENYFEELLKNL
Nature of the assay: BROMOscan ligand-binding assay.
Source text: as §1

Assay [12] has as its target EP300 (Homo sapiens, UniProt Q09472). Nature of the assay: Histone acetyltransferase (HAT) activity assay. Format: biochemical. As to conditions: for activity at 1 µM / activity at 10 µM: read-out: HATs Activity (%).
Target sequence in this assay (Q09472 whole entry, species assumed): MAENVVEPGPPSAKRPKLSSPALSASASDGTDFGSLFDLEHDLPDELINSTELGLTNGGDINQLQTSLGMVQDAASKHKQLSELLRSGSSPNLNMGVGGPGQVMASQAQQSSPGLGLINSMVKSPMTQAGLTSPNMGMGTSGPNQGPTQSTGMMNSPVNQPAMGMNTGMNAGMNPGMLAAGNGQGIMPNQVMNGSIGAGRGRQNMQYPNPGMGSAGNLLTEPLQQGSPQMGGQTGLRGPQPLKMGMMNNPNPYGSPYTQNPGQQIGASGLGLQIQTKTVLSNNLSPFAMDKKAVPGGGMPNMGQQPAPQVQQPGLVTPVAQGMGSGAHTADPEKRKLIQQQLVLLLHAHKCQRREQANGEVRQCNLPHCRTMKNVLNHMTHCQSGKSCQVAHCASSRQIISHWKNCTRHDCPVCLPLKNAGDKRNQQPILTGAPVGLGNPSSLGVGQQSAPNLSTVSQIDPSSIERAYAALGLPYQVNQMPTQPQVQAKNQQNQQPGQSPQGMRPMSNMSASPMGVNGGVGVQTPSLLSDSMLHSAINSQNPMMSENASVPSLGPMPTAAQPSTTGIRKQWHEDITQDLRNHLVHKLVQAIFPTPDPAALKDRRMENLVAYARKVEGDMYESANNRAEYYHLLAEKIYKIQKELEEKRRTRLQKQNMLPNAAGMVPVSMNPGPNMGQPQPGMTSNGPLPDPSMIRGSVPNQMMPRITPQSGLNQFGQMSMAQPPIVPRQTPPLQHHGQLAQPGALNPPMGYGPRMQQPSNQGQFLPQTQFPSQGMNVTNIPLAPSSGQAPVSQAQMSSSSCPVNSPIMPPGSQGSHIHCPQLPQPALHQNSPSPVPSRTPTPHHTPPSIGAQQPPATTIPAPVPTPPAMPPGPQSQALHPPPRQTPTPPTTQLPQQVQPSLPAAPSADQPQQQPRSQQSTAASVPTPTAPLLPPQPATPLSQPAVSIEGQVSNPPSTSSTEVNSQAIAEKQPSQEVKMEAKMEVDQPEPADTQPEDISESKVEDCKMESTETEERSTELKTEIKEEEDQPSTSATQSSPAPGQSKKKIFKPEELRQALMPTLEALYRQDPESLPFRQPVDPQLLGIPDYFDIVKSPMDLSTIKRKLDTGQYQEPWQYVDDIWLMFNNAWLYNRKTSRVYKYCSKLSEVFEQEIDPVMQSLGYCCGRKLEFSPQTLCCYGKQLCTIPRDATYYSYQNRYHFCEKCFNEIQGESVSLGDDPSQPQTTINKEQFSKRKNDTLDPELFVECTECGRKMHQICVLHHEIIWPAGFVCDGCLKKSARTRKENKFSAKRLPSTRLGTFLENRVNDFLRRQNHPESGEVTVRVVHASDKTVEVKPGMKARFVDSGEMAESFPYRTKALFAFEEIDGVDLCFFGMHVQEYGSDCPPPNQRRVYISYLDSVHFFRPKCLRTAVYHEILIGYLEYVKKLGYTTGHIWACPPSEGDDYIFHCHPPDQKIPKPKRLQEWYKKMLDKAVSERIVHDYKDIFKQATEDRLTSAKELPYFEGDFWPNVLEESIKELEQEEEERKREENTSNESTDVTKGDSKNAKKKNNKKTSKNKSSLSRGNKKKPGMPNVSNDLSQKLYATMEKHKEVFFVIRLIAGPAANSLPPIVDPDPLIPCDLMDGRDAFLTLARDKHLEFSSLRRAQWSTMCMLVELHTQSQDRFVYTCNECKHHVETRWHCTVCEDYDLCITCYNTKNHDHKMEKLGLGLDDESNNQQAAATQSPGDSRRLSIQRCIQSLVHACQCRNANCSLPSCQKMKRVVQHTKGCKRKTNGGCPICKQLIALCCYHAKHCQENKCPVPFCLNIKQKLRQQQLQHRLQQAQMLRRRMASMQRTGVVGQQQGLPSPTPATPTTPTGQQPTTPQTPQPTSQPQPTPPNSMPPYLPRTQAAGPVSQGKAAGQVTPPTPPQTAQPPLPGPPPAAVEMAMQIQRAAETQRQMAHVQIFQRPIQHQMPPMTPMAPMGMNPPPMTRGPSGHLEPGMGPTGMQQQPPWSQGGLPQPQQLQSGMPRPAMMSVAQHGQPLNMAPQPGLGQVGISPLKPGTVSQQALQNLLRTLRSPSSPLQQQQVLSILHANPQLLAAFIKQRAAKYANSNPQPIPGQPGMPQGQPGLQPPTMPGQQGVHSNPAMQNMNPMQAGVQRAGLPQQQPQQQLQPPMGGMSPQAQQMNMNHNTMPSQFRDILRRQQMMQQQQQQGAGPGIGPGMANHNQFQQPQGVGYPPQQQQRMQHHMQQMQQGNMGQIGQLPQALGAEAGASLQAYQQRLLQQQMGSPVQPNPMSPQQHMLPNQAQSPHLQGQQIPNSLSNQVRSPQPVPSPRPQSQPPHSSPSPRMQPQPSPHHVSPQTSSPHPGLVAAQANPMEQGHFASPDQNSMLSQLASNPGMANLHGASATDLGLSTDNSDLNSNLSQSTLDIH
Assay [13] addresses T5, HAT1 (Homo sapiens, UniProt O14929).
T5 sequence (O14929 1-419): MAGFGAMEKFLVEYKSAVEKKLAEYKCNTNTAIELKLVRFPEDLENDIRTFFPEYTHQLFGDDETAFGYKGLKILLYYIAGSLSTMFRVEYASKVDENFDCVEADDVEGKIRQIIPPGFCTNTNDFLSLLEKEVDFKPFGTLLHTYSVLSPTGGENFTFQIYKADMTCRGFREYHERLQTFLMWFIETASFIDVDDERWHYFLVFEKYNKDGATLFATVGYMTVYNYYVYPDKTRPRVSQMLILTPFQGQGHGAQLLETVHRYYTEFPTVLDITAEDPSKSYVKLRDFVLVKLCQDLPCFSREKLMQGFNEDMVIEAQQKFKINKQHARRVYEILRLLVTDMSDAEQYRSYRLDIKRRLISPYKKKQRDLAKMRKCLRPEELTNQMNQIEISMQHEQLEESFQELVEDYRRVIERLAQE
As to the kind of experiment: Histone acetyltransferase (HAT) activity assay. Format: biochemical. As to conditions: for activity at 1 µM / activity at 10 µM: read-out: HATs Activity (%).

Assay [14] addresses T6, MYST1 (Homo sapiens, UniProt Q9H7Z6).
T6 sequence (Q9H7Z6 1-458): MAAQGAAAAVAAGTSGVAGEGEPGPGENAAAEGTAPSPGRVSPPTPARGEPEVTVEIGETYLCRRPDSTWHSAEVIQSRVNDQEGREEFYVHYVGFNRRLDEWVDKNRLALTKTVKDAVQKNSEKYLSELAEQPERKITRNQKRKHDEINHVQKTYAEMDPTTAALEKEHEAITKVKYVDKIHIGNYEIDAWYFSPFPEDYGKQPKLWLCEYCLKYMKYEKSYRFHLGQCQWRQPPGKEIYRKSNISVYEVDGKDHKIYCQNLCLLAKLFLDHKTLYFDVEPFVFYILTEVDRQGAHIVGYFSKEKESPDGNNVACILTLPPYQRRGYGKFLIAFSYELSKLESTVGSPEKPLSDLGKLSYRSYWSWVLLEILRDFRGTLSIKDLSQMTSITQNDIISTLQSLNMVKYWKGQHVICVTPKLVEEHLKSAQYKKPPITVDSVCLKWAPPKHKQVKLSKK
Nature of the assay: Histone acetyltransferase (HAT) activity assay. Format: biochemical. To be noted: for activity at 1 µM / activity at 10 µM: read-out: HATs Activity (%).

Assay [15] deals with MYST3 (Homo sapiens, UniProt Q92794). As to the kind of experiment: Histone acetyltransferase (HAT) activity assay. To be noted: for activity at 1 µM / activity at 10 µM: read-out: HATs Activity (%). The class given is biochemical.
For assay [16], the target named is GCN5L2 (Homo sapiens, UniProt Q92830). As to the kind of experiment: Histone acetyltransferase (HAT) activity assay. Format: biochemical. As to conditions: for activity at 1 µM / activity at 10 µM: read-out: HATs Activity (%).
Assay [17] addresses T7, BRD7 (Homo sapiens, UniProt Q9NPI1).
T7 sequence (Q9NPI1 131-235 limits assumed): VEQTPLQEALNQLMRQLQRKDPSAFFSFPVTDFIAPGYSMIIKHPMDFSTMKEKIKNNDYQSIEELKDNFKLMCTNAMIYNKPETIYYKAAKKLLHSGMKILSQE
As to the kind of experiment: BROMOscan ligand-binding assay.
Source text: as §1

The target in assay [18] is T8, BRPF3 (Homo sapiens, UniProt Q9ULD4).
T8 sequence (Q9ULD4 589-693 limits assumed): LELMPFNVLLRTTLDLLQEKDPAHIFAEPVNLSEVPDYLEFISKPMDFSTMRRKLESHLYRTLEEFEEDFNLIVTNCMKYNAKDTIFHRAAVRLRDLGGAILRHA
Nature of the assay: BROMOscan ligand-binding assay.
Source text: as §1

Where [19] appears, read: read-out: KD (BROMOscan), sheet prints no unit (nM).
[20] abbreviates: KD (BROMOscan), sheet prints no unit (nM).

Molecules are shown by their SMILES. Like-named read-outs stand apart in the source and are kept apart here.

The Kd is a measure of binding affinity in units of concentration.

Chain of PBRM1(2) (Q86U86 177-287 limits assumed): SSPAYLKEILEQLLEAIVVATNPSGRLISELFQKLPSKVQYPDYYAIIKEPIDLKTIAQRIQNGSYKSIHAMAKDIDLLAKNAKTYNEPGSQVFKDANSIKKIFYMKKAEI
Chain of BRD2(1,2) (P25440 71-455 limits assumed): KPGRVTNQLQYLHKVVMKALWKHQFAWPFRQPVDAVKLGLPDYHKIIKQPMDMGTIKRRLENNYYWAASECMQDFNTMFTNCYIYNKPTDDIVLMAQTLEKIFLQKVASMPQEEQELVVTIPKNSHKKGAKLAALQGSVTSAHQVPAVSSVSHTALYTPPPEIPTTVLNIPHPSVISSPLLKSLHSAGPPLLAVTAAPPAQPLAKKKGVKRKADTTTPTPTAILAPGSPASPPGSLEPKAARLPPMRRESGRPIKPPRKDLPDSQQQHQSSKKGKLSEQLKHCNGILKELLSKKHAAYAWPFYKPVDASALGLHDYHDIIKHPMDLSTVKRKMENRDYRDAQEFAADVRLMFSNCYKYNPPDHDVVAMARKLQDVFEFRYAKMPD
Chain of SMARCA2 (P51531 1-1572 isoform P51531-2): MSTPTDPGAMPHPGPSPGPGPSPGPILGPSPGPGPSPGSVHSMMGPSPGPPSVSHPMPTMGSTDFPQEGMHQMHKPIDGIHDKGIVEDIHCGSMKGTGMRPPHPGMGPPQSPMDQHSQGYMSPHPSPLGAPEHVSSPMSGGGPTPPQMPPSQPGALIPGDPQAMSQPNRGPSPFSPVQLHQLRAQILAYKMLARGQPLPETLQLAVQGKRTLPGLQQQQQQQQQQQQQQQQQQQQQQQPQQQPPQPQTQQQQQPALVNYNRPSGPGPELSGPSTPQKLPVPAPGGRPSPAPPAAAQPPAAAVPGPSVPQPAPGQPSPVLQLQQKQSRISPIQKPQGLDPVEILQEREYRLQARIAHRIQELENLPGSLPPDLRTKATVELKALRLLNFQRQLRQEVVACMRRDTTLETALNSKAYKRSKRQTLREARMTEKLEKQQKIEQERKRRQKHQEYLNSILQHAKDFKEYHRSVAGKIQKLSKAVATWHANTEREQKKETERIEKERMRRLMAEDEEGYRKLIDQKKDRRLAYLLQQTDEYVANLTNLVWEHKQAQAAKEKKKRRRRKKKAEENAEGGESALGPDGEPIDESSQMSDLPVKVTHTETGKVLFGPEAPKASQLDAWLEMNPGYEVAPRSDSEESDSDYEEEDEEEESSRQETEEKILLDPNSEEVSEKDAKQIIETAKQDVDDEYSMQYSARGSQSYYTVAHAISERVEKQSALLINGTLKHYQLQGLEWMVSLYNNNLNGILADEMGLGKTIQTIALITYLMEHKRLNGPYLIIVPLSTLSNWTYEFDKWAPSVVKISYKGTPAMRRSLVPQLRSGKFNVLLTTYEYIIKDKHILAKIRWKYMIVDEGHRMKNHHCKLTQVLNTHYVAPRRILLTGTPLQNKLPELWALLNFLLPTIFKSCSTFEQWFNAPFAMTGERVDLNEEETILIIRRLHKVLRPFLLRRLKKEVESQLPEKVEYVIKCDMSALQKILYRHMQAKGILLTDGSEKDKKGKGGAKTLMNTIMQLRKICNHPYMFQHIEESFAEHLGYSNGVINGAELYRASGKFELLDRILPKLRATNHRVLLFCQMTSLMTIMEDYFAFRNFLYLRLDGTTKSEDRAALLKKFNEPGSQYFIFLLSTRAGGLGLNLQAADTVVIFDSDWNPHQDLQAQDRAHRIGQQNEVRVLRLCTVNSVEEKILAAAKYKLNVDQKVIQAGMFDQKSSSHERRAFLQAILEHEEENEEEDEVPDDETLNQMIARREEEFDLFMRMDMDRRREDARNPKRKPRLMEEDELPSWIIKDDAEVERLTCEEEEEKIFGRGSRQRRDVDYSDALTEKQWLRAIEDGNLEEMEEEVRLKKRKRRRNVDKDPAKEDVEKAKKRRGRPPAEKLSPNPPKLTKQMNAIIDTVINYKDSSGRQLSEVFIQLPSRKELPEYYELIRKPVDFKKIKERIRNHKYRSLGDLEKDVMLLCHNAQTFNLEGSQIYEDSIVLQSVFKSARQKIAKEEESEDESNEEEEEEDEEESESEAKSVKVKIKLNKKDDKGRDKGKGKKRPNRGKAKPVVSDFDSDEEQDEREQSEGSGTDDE
Chain of SMARCA4 (P51532 1453-1564 limits assumed): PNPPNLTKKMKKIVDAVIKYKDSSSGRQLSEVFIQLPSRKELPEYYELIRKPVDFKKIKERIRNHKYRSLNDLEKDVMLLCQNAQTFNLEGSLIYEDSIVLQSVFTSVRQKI

Regarding `COc1cc(C#N)ccc1S(=O)(=O)Nc1ccc2c(c1)cc(C)c(=O)n2C` [NI 57], the Kd in [1] (ATAD2B) is over 50000 nM; in [2] (BRD2(1)), 5.9 µM; in [3] (BRD2(1,2)) it was 12 µM; in assay [4] (BRD3(1)) it was 7200 nM; in assay [5] (BRD4(full-length,short-iso.)), 4.9 µM; in assay [6] (EP300), 15000 nM. The Kd in assay [7] (GCN5L2) was 4100 nM; in [8] (PBRM1(2)), over 50000 nM; in assay [9] (SMARCA2), over 50000 nM; in assay [10] it was 41 µM; in assay [11] (TRIM24(Bromo.)) it was 1600 nM.
On to `CCCS(=O)(=O)c1nc(NC2CC2)cc(-c2ccc3c(ccn3C3CC(C)(C)NC(C)(C)C3)c2)n1` [NVS-CECR2-1], for which the activity at 1 µM turned out to be 90% in assay [12]; 99% in [13]; 96% in [14]; 98% in [15]; 100% in [16]. Besides, the activity at 10 µM amounted to 84% in assay [12]; 88% in [13]; 94% in [14]; 103% in assay [15]; 100% in assay [16]. For the same molecule, the Kd is over 30000 nM in assay [1]; over 30 µM in assay [2]; 16 µM in [3]; over 30000 nM in assay [4]; 13 µM in assay [5]; 6800 nM in [17]. Further, the Kd in assay [18], in [6], in assay [7], in assay [8], in [9] and in assay [11] was over 30000 nM in each case.
For the molecule `COc1cc2c(cc1NS(=O)(=O)c1ccc(Br)cc1C)n(C)c(=O)n2C` [OF-1], the “HATs Activity (%)” value in assay [12] (1µM) stood at 100%; in assay [12] (10µM) it was 103%; in assay [13] (1µM), 92%; in [13] (10µM), 93%; in [14] (1µM) it was 102%; in [14] (10µM) it was 94%. Also, the “HATs Activity (%)” value stood at 100% in assay [15] (1µM), 102% in [15] (10µM), 98% in assay [16] (1µM) and 93% in assay [16] (10µM). For the same molecule, the Kd in [1] (ATAD2B) is 29000 nM; in assay [2] (BRD2(1)) it was 7.4 µM; in assay [3] (BRD2(1,2)) it was 5.6 µM; in assay [4] (BRD3(1)) it was 5500 nM; in [17] (BRD7), 1000 nM; in assay [6] (EP300), 47000 nM. Also, the Kd in assay [7] (GCN5L2) was 6900 nM; in assay [8] (PBRM1(2)), over 50000 nM; in [8] (setting [19]), over 30000 nM; in assay [9] (SMARCA2), over 50000 nM; in assay [9] (setting [19]), over 30000 nM; in [10], 16 µM. The affinity in assay [11] (TRIM24(Bromo.)), expressed as Kd, was 1900 nM.
`O=C(C=CN1CC2CC1CN2c1ccccn1)c1ccccc1O` (stereo not shown) [PFI-3]: the activity at 1 µM in assay [12] (1µM) was 98%; in [13] (1µM) it was 96%; in assay [14] (1µM) it was 99%; in assay [15] (1µM), 95%; in assay [16] (1µM), 99%. Further, the activity at 10 µM in [12] (10µM) is 97%; in assay [13] (10µM), 94%; in assay [14] (10µM) it was 99%; in [15] (10µM), 96%; in assay [16] (10µM), 101%. Also, the Kd is over 30000 nM in assay [1] (setting [20]); over 100000 nM in assay [1] (KD, ATAD2B); over 30000 nM in assay [4] (setting [20]); over 100000 nM in assay [4] (KD, BRD3(1)); over 30000 nM in assay [17] (setting [20]); over 100000 nM in assay [17] (KD, BRD7). For the same molecule, the Kd was over 30000 nM in assay [18] (setting [20]); over 100000 nM in assay [18] (KD, BRPF3); over 30000 nM in assay [6] (setting [20]); over 100000 nM in assay [6] (KD, EP300); over 30000 nM in [7] (setting [20]); over 100000 nM in assay [7] (KD, GCN5L2). For the same molecule, the Kd in assay [11] (setting [20]) is over 30000 nM; in assay [11] (KD, TRIM24(Bromo.)) it was over 100000 nM.
On to `COc1ccc(CCc2nc3cc(-c4c(C)noc4C)ccc3n2C[C@H](C)N2CCOCC2)cc1Cl` [SGC-CBP30], for which the activity at 1 µM in assay [12] (1µM) turned out to be 98%; in [13] (1µM), 96%; in assay [14] (1µM), 103%; in assay [15] (1µM) it was 103%; in assay [16] (1µM) it was 101%. Besides, the activity at 10 µM worked out at 92% in assay [12] (10µM); 97% in [13] (10µM); 97% in assay [14] (10µM); 103% in [15] (10µM); 101% in [16] (10µM). Also, the Kd in [1] (setting [20]) was over 30000 nM; in assay [1] (KD, BROMOscan, ATAD2B), over 100000 nM; in assay [2], 0.62 µM; in assay [3], 0.65 µM; in [4] (KD, BROMOscan, BRD3(1)) it was 740 nM; in assay [5], 0.587 µM. Moreover, the Kd in assay [17] (KD, BROMOscan, BRD7) was 39000 nM; in [18] (setting [20]), over 30000 nM; in [18] (KD, BROMOscan, BRPF3), over 100000 nM; in assay [7] (setting [20]), over 30000 nM; in assay [7] (KD, BROMOscan, GCN5L2) it was over 100000 nM; in assay [8] (setting [20]), over 30000 nM. Moreover, the Kd in [8] (KD, BROMOscan, PBRM1(2)) was over 100000 nM; in [9] (setting [20]), over 30000 nM; in assay [9] (KD, BROMOscan, SMARCA2) it was over 100000 nM; in assay [11] (KD, BROMOscan, TRIM24(Bromo.)), 12000 nM.
